The values below come from ChEMBL document CHEMBL2034873, “Discovery of a Novel Series of CHK1 Kinase Inhibitors with a Distinctive Hinge Binding Mode” (ACS Med Chem Lett, 2012).

The target of experiment [1] is T1, Serine/threonine-protein kinase Chk1 (Homo sapiens, UniProt O14757).
T1 sequence (O14757 whole entry): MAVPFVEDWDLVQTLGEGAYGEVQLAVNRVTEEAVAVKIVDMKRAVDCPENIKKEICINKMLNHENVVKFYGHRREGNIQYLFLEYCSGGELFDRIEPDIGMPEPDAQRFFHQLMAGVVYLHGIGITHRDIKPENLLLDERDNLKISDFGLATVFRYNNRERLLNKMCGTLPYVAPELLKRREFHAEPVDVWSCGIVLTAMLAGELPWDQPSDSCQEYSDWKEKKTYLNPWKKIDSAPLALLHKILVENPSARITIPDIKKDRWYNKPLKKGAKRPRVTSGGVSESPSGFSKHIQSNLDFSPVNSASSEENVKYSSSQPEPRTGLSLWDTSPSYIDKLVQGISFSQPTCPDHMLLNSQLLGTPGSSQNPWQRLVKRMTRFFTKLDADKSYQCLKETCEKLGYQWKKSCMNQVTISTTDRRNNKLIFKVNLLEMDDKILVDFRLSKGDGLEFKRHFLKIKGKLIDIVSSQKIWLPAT
Nature of the experiment: Inhibition of recombinant His-tagged CHK1 using biotin-RSGLYRSPSMPENLNRPR as substrate after 1 hr by scintillation proximity assay.

Experiment [2] can be described thus: Selectivity ratio of IC50 for cyclinE/CDK2 to IC50 for CHK1.
The target of experiment [3] is T1, Serine/threonine-protein kinase Chk1. The experiment in a line: Inhibition of CHK1 in human U2OS cells pretreated with hydroxyurea assessed as gamma-H2AX level after 2 hrs by immunofluorescence assay. In kind it is cell-based.
Experiment [4] shares this target. Nature of the experiment: Binding affinity to CHK1 by affinity-selection-mass […] assay.
In experiment [5] the target is Cyclin-dependent kinase 2/cyclin E1 (Homo sapiens, UniProt P24941). The experiment in a line: Inhibition of Cyclin E/CDK2 expressed in Sf9 cells using [33gamma]ATP after 1 hr by liquid scintillation counter.

The structures appear in SMILES notation. pEC50, pIC50, pKd: −log10 of the molar value.

The pIC50 is the IC50 on a negative log10 scale, so that one unit is a factor of ten. With `O=C(Nc1ccccc1N1CCNCC1)c1csc(-c2ccccc2)n1`, the pIC50 in experiment [1] is 7.06. Besides, the Ratio IC50 in experiment [2] was 12.

For the molecule `O=C(Nc1ccccc1N1CCNCC1)c1csc(-c2cncnc2)n1`, the pIC50 in experiment [1] was 4.89.

In the case of `COc1ccc(-c2nc(C(=O)Nc3ccccc3N3CCNCC3)cs2)cc1OC`, in experiment [1], the pIC50 is 6.28. Further, in experiment [2], the Ratio IC50 came out at 6.6.

Regarding `CN(C)c1ccc(-c2nc(C(=O)Nc3ccccc3N3CCNCC3)cs2)cc1`, the pIC50 in experiment [1] is 7.72. Also, the Ratio IC50 in experiment [2] was 73.

As usually defined, the pEC50 is the negative decadic logarithm of the EC50, by convention in mol/L. As for `O=C(Nc1ccccc1N1CCNCC1)c1csc(-c2ccc(Oc3ccccc3)cc2)n1`, the pIC50 in experiment [1] is 8.30. In addition, the Ratio IC50 in experiment [2] came to 3600. In addition, the pEC50 in experiment [3] is under 4.30.

As to `CC#Cc1nc(C(=O)Nc2ccccc2N2CCNCC2)cs1`, the pIC50 in experiment [1] was 5.41.

Consider `O=C(Nc1ccccc1N1CCNCC1)c1cc(-c2ccc3c(c2)OCO3)on1`, for which the pIC50 in experiment [1] was 5.47.

In the case of `COc1ccc(-c2nc(C(=O)Nc3ccccc3N3CCNCC3)cs2)cc1C`, the pIC50 in experiment [1] was 6.24. Further, in experiment [2], the Ratio IC50 stood at 12.

`O=C(Nc1ccccc1N1CCNCC1)c1nc(-c2ccc3c(c2)CCO3)cs1`: the pIC50 in experiment [1] is under 4.30.

In the case of `Cc1nc(-c2ccc3c(c2)CCO3)sc1C(=O)Nc1ccccc1N1CCNCC1`, the pIC50 in experiment [1] was 4.68.

As for `O=C(Nc1ccccc1N1CCNCC1)c1csc(-c2cccnc2)n1`, the pIC50 in experiment [1] is 5.85. Moreover, in experiment [2], the Ratio IC50 was 0.8.

As for `O=C(Nc1ccccc1N1CCNCC1)c1csc(-c2ccc3c(c2)OCO3)n1`, in experiment [1], the pIC50 is 6.77. For the same molecule, in experiment [2], the Ratio IC50 came to 18.

For `O=C(Nc1ccccc1N1CCNCC1)c1csc(-c2ccc3c(c2)OCCCO3)n1`, the pIC50 in experiment [1] was 6.72.

Regarding `C[C@@H]1CN(c2ccccc2NC(=O)c2csc(-c3ccc4c(c3)CCO4)n2)CCN1`, in experiment [1], the pIC50 was 6.92. The Ratio IC50 in experiment [2] came out at 2.

Consider `O=C(Nc1ccccc1N1CCNCC1)c1csc(-c2csc3ccccc23)n1`, for which, in experiment [1], the negative logarithm of the IC50 (pIC50) is 7.16. The Ratio IC50 in experiment [2] came out at 6.

Consider `O=C(Nc1ccccc1N1CCNCC1)c1csc(-c2ccsc2)n1`, for which, in experiment [1], the pIC50 was 6.68. Further, the Ratio IC50 in experiment [2] was determined as 5.

Consider `O=C(Nc1ccccc1N1CCNCC1)c1csc(-c2cn[nH]c2)n1`, for which, in experiment [1], the pIC50 was 6.72. Also, the Ratio IC50 in experiment [2] was 0.67.

On to `O=C(Nc1ccccc1N1CCNCC1)c1csc(-c2ccc[nH]2)n1`, for which the pIC50 in experiment [1] was 5.92.

Consider `CC1CNCCN1c1ccccc1NC(=O)c1csc(-c2ccc3c(c2)CCO3)n1` (stereo unspecified), for which the pIC50 in experiment [1] is 6.55.

Regarding `CC(=O)N1CCN(c2ccccc2NC(=O)c2csc(-c3ccc4c(c3)CCO4)n2)CC1`, the pIC50 in experiment [1] was 5.39. In experiment [2], the Ratio IC50 is 0.34.

Turning to `CN(C)Cc1ccc(-c2nc(C(=O)Nc3ccccc3N3CCNCC3)cs2)cc1`, in experiment [1], the pIC50 was under 4.30.

For `O=C(Nc1ccccc1N1CCOCC1)c1csc(-c2ccc3c(c2)CCO3)n1`, the pIC50 in experiment [1] is under 4.30.

Turning to `O=C(Nc1ccccc1N1CCNCC1)c1csc(-c2ccc(-c3ccccc3)s2)n1`, in experiment [1], the pIC50 is 7.05.

Regarding `O=C(Nc1ccccc1N1CCNCC1)c1csc(-c2ccncc2)n1`, in experiment [1], the pIC50 is 5.82. The Ratio IC50 in experiment [2] was determined as 0.54.

For the molecule `O=C(Nc1ccccc1N1CCNCC1)c1csc(-c2cc[nH]c2)n1`, in experiment [1], the pIC50 was 7.00.

`O=C(Nc1ccccc1N1CCNCC1)c1csc(-c2ccc3sccc3c2)n1`: in experiment [1], the pIC50 was 8.30. The Ratio IC50 in experiment [2] worked out at 380. Further, the pEC50 in experiment [3] is 5.60.

As to `O=C(Nc1ccccc1N1CCNCC1)c1csc(-c2ccc3[nH]ccc3c2)n1`, in experiment [1], the pIC50 is 8.40. In experiment [2], the Ratio IC50 amounted to 960. For the same molecule, the pEC50 in experiment [3] is 5.46.

Consider `O=C1CN(c2ccccc2NC(=O)c2csc(-c3ccc4c(c3)CCO4)n2)CCN1`, for which the pIC50 in experiment [1] is under 4.30.

`O=C(Nc1ccccc1N1CCNCC1)c1csc(-c2cccs2)n1`: the pIC50 in experiment [1] was 7.44. In addition, in experiment [2], the Ratio IC50 came out at 16.

Consider `C[C@H]1CN(c2ccccc2NC(=O)c2csc(-c3ccc4c(c3)CCO4)n2)CCN1`, for which the pIC50 in experiment [1] was 7.07. Moreover, in experiment [2], the Ratio IC50 worked out at 3.

For the molecule `O=C(Nc1ccccc1N1CCNCC1)c1csc(-c2cc3ccccc3s2)n1`, the pIC50 in experiment [1] is 8.15. The Ratio IC50 in experiment [2] was 33. Moreover, in experiment [3], the pEC50 was 5.82.

In the case of `O=C(Nc1ccccc1C1=CCNCC1)c1csc(-c2ccc3c(c2)CCO3)n1`, the pIC50 in experiment [1] was 6.12. For the same molecule, the Ratio IC50 in experiment [2] is 1.7.

Regarding `O=C(Nc1ccccc1N1CCNCC1=O)c1csc(-c2ccc3c(c2)CCO3)n1`, the pIC50 in experiment [1] is under 4.30.

As for `COc1ccc(-c2nc(C(=O)Nc3ccccc3N3CCNCC3)cs2)cc1`, the pIC50 in experiment [1] was 7.14. Besides, in experiment [2], the Ratio IC50 was 5.

In the case of `CN1CCN(c2ccccc2NC(=O)c2csc(-c3ccc4c(c3)CCO4)n2)CC1`, in experiment [1], the pIC50 was 5.70. Moreover, the Ratio IC50 in experiment [2] was 0.16.

One may read the pKd as −log10 of the Kd, conventionally taken in molar units. As to `O=C(Nc1ccccc1N1CCNCC1)c1csc(-c2ccc3c(c2)CCO3)n1`, the pKd in experiment [4] was over 7.00. In addition, the pIC50 was 7.12 in experiment [1] and 6.68 in experiment [5]. Besides, the Ratio IC50 in experiment [2] was 2.7. The pEC50 in experiment [3] is 5.00.

`O=C(Nc1ccccc1N1CCNCC1)c1csc(-c2ccc3occc3c2)n1`: the pIC50 in experiment [1] is 7.72. Also, the Ratio IC50 in experiment [2] is 27. In addition, in experiment [3], the pEC50 is 5.70.

Consider `O=C(Nc1ccccc1N1CCNCC1)c1csc(-c2cc[nH]n2)n1`, for which the pIC50 in experiment [1] is 6.96. Moreover, the Ratio IC50 in experiment [2] stood at 33.

For `O=C(Nc1ccccc1N1CCNCC1)c1csc(C#Cc2ccccc2)n1`, in experiment [1], the pIC50 is 6.36. Moreover, the Ratio IC50 in experiment [2] was found to be 32.

Consider `O=C(Nc1ccccc1N1CCNCC1)c1csc(-c2ccc(-c3cccs3)s2)n1`, for which the pIC50 in experiment [1] is 6.89.

As to `O=C(Nc1ccccc1C1CCNCC1)c1csc(-c2ccc3c(c2)CCO3)n1`, the pIC50 in experiment [1] is 5.35. In addition, in experiment [2], the Ratio IC50 was determined as 1.8.

Take `N#Cc1ccc(-c2nc(C(=O)Nc3ccccc3N3CCNCC3)cs2)cn1`: the pIC50 in experiment [1] was 5.28.
